Assay results from US20200263184A1, “PHARMACEUTICAL COMPOSITION FOR PREVENTING AND TREATING CANCER, CONTAINING MALATE-ASPARTATE SHUTTLE INHIBITOR AND ANTICANCER DRUG AS ACTIVE INGREDIENTS” (NATIONAL CANCER CENTER, priority 2017, published 2020).

Experiments:
Format in all cases: cell-based
[1] = tested on: Huh7, SNB19, UACC62, MDA-MB-231, KATO III cancer cell lines; assay: SRB cell proliferation, NPM and etomoxir, cancer cell lines; settings: 25 μM NPM alone, 24 hours; cancer cell lines other than SNB19
[2] = tested on: A549 cells (lung cancer cell line); assay: Intracellular ATP level with PSA or PA, A549; settings: 2, 4, 6, 8 or 10 mM, 48 hours; compared to an untreated control
Description: (§1) Specifically, A549 cells, IMR90 cells, H23 cells, H226 cells, H522 cells, and EKVX cells, which are lung cancer cell lines; and UACC62 cells, MALME-3M cells, A357 cells, M14 cells, and UACC257 cells, which are melanoma cell lines, were separately cultured. […] for 48 hours, and then intracellular ATP levels were examined using an ATP colorimetric/fluorometric analysis kit (BioVision, Milpitas, Calif., USA) in accordance with the manufacturer's protocol. The incubated cells were divided into groups of 1×10^6 cells, 100 μl of an ATP assay buffer was added thereto to lyse the cells, followed by centrifugation at 15,000×g and 4° C. for 2 minutes to separate only the supernatant. 2 μl to 50 μl of the separated supernatant was transferred to a 96-well plate, and then an ATP assay buffer was added thereto to a final volume of 50 μl per well. […] After mixing, the plate was maintained in a dark room at room temperature for 30 minutes, and then absorbance was measured at 570 nm using a microplate reader. To compare relative ATP levels among the measured values, an absorbance value for cancer cells to which gossypol and phenformin were not added was set as a reference, and relative absorbance values of the cases in which cancer cells were treated with each drug were compared, to compare ATP levels in the cells. […]

[3] = tested on: UACC62 cells (melanoma cell line); assay: Intracellular ATP level with PSA or PA, UACC62; settings: 2, 4, 6, 8 or 10 mM, 48 hours; compared to an untreated control
Description: as §1

[4] = tested on: A549 cells (lung cancer cell line); assay: SRB cell proliferation with PSA, A549; settings: PSA 2, 4, 6, 8 or 10 mM, 48 hours
Description: (§2) Specifically, A549 cells, H522 cells, H226 cells, H23 cells, and EKVX cells, which are lung cancer cell lines; and UACC62 cells, UACC257 cells, A375 cells, SK-MEL-5 cells, and MALME-3M cells, which are melanoma cell lines, were separately cultured. The respective cells were cultured at a […] dose and inoculated in a 96-well plate at a concentration ranging from 5,000 cells/ml to 20,000 cells/ml according to the doubling time of each cell line. […] After completion of the culturing, to perform SRB analysis, a cooled 50% aqueous TCA solution was added to each well to a final concentration of 10% and the cells were incubated in a 4° C. refrigerated state for 60 minutes and then fixed. After incubation, the supernatant was removed, washed five times with tap water, and dried. A 1% acetic acid aqueous solution containing 0.4% sulforhodamine B was added to the dried sample in each well and maintained at room temperature for 10 minutes to stain the cells. After staining, the dye which was not used for staining was removed by washing with a 1% acetic acid solution, and then the plate was dried again. The dye which was used for staining was dissolved in a 10 mM Trisma base solution, and then absorbance was measured at 515 nm.
(§3) Specifically, A549 cells (lung cancer cell line), UACC62 cells (melanoma cell line), and IMR90 cells (normal control, lung fibroblasts) were separately cultured. […]

[5] = tested on: UACC62 cells (melanoma cell line); assay: SRB cell proliferation with PSA, UACC62; settings: PSA 2, 4, 6, 8 or 10 mM, 48 hours
Description: as §2, §3

[6] = tested on: IMR90 cells (normal control, lung fibroblasts); assay: SRB cell proliferation with PSA, IMR90; settings: normal cell line, PSA 2, 4, 6, 8 or 10 mM, 48 hours
UACC62 cells = assay: Cell apoptosis (Annexin V-FITC/PI flow cytometry), UACC62; settings: single drug alone (4 mM PSA or PA; 10 μM gossypol), 48 hours
Description: (§4) First, A549 cells, UACC62 cells, and IMR90 cells, as a normal control, were cultured. The cultured cells were treated with a drug mixture of a 4 mM […] inhibitor (PSA or PA), which is an MAS inhibitor, and 10 μM gossypol or with only one of the drugs and cultured in the same manner as described above for 48 hours. The medium was removed from the cultured cells, followed by washing the cells twice with cold PBS and centrifugation at 1,400 rpm for 3 minutes, and a binding buffer was added thereto so that concentration was 1×10^6 cells/[…]. Then, a […] buffer was transferred to a 5-mL culture tube and 5 μl of each of Annexin V-FITC and propidium iodine (PI) was added thereto. Mixing was performed by slowly vortexing the tube, and then the cells were incubated in a dark room at room temperature for 15 minutes. After incubation, a binding buffer (400 μl) was added thereto and the degree of increase in cell apoptosis was examined by a flow cytometer.

[7] = tested on: IMR90 cells (normal control); assay: Mitochondrial membrane potential (TMRE), IMR90; settings: single drug alone (4 mM PSA or PA; 10 μM gossypol), 48 hours
Description: (§5) Specifically, A549 cells, UACC62 cells, and IMR90 cells, as a normal control, were cultured. The respective cultured cells were treated with a drug mixture of 4 mM of an SLC25A11 inhibitor (PSA or PA), which is an MAS inhibitor, and 10 μM gossypol or with only one of the drugs and cultured in the same manner as described above for 48 hours, and then each cell culture solution was dispensed into chamber slides (for fluorescence microscopy) or a 6-well plate (for flow cytometry). The dispensed culture solution was treated with 100 nM tetramethylrodamine ester (TMRE) as a fluorescent probe and a reaction was allowed to occur therebetween for 20 minutes. After the reaction, the cells were washed with cooled PBS, and the fluorescence development of the cells was measured using a Zeiss LSM510 fluorescence microscope (Carl Zeiss, Oberkochen, Baden-Wurttemberg, Germany). In addition, fluorescence intensity was analyzed in a flow cytometer using a 585 nm (FL-2) channel.

[8] = tested on: IMR90 cells (normal control); assay: Cell apoptosis (Annexin V-FITC/PI flow cytometry), IMR90; settings: single drug alone (4 mM PSA or PA; 10 μM gossypol), 48 hours
Description: as §4

[9] = tested on: EKVX, A549, HOP-62 (lung cancer) and UACC62, UACC257, A375 (melanoma) cells; assay: SRB cell proliferation, MAS inhibitor and gossypol, cancer cell lines; settings: 48 hours
A549 cells [10] = assay: Mitochondrial membrane potential (TMRE), A549; settings: 10 μM gossypol alone, 48 hours
Description: as §5

A549 cells [11] = assay: Cell apoptosis (Annexin V-FITC/PI flow cytometry), A549; settings: single drug alone (4 mM PSA or PA; 10 μM gossypol), 48 hours
Description: as §4

cancer cell lines = assay: Intracellular ATP level, MAS inhibitor and gossypol, cancer cell lines; settings: 10 μM gossypol alone vs 4 mM PSA or PA alone, 48 hours
Description: as §1, with “[…],” for “an absorbance value for cancer cells to which gossypol and phenformin were not added was set as a reference,”

## O=C1C=CC(=O)N1c1ccc2ccc3cccc4ccc1c2c34 [NPM, N-(1-pyrenyl)maleimide]
[1]
  effect of inhibiting cancer cell proliferation: could be exhibited

## O=C(O)C(=O)c1ccccc1C(=O)O [PA, phthalonic acid]
[2]
  intracellular ATP levels: reduced
[3]
  intracellular ATP levels: reduced

## O=C(O)CC(C(=O)O)c1ccccc1 (stereo not shown) [PSA, phenyl succinic acid]
[4]
  level of cancer cell line proliferation: reduced in a manner dependent upon the concentration of added PSA
[5]
  level of cancer cell line proliferation: reduced in a manner dependent upon the concentration of added PSA
[2]
  intracellular ATP levels: reduced
[3]
  intracellular ATP levels: reduced
[6]
  cell proliferation: not significantly inhibited

## Cc1cc2c(C(C)C)c(O)c(O)c(C=O)c2c(O)c1-c1c(C)cc2c(C(C)C)c(O)c(O)c(C=O)c2c1O [gossypol]
UACC62 cells
  cell apoptosis: insignificant extent
[7]
  mitochondrial membrane potential: no significant change
[8]
  cell apoptosis: no significant cell apoptosis
[9]; 10 μM gossypol alone vs 25 μM NPM
  effect of inhibiting a cell proliferation level, gossypol alone versus NPM alone: more significantly exhibited
[9]; 10 μM gossypol alone vs 4 mM PSA or PA alone
  reduction in the cell proliferation level, gossypol alone versus PSA or PA alone: more prominent
A549 cells [10]
  mitochondrial membrane potential: significant decrease
A549 cells [11]
  cell apoptosis: insignificant extent
Cancer cell lines
  intracellular ATP production level, difference between gossypol alone and PSA or PA alone: no significant difference
